Values quoted from earlier work in PubChem BioAssay AID1259409 (Chemical Carcinogenesis Research Information System (CCRIS), 2018).

Test system: rodent chemically induced tumor inhibition, incidence and multiplicity
Assay: CCRIS tumor inhibitor studies

S=C=NCCCCc1ccccc1
tumour outcome (control, treated, inhibition, significance) (Carcinogen: 4-(METHYLNITROSAMINO)-1-(3-PYRIDYL)-1-BUTANONE, 64091-91-4, Dose [Inhibitor]: 0, 0.2 UMOL 1/D FOR 4 D ADMINISTERED PRIOR TO CARCINOGEN TREATMENT (STUDY DURATION:116D), Route [Inhibitor]: GAVAGE, Species: MOUSE, Strain/Sex: STRAIN A, Target Tissue: Type of Lesion: LUNG: ADENOMA, Dose [Carcinogen]: 10 UMOL ONCE 2 HR AFTER FINAL DOSE OF INHIBITOR, Promoter: NONE USED): 100%, 100%, 0%, not significant
tumour outcome (control, treated, inhibition, significance) (Carcinogen: 4-(METHYLNITROSAMINO)-1-(3-PYRIDYL)-1-BUTANONE, 64091-91-4, Dose [Inhibitor]: 0, 1 UMOL 1/D FOR 4 D ADMINISTERED PRIOR TO CARCINOGEN TREATMENT (STUDY DURATION:116 D), Route [Inhibitor]: GAVAGE, Species: MOUSE, Strain/Sex: STRAIN A, Target Tissue: Type of Lesion: LUNG: ADENOMA, Dose [Carcinogen]: 10 UMOL ONCE 2 HR AFTER FINAL DOSE OF INHIBITOR, Promoter: NONE USED): 100%, 42%, 58%, p<0.05
tumour outcome (control, treated, inhibition, significance) (Carcinogen: 4-(METHYLNITROSAMINO)-1-(3-PYRIDYL)-1-BUTANONE, 64091-91-4, Dose [Inhibitor]: 0, 5 UMOL 1/D FOR 4 D ADMINISTERED PRIOR TO CARCINOGEN TREATMENT (STUDY DURATION: 116D), Route [Inhibitor]: GAVAGE, Species: MOUSE, Strain/Sex: STRAIN A, Target Tissue: Type of Lesion: LUNG: ADENOMA, Dose [Carcinogen]: 10 UMOL ONCE 2 HR AFTER FINAL DOSE OF INHIBITOR, Promoter: NONE USED): 100%, 11%, 89%, p<0.05
tumour outcome (control, treated, inhibition, significance) (Carcinogen: 4-(METHYLNITROSAMINO)-1-(3-PYRIDYL)-1-BUTANONE, 64091-91-4, Dose [Inhibitor]: 0, 5 UMOL 1/D FOR 4 D ADMINISTERED PRIOR TO CARCINOGEN DOSE (STUDY DURATION: 116 D), Route [Inhibitor]: GAVAGE, Species: MOUSE, Strain/Sex: STRAIN-A, Target Tissue: Type of Lesion: LUNG: ADENOMA, Dose [Carcinogen]: 10 UMOL IN SALINE ADMINISTERED 2 HR POST LAST AGENT DOSE, Promoter: NONE USED): 100%, 32%, 68%, p<0.001
tumour outcome (control, treated, inhibition, significance) (Carcinogen: 4-(N-NITROSOMETHYLAMINO)-1-(3-PYRIDYL)-1-BUTANONE, 64091-91-4, Dose [Inhibitor]: 0, 5 UMOL/D FOR 4 CONSECUTIVE DAYS (STUDY DURATION: 16.5 WK), Route [Inhibitor]: GAVAGE, Species: MOUSE, Strain/Sex: STRAIN-A/FEMALE, Target Tissue: Type of Lesion: LUNG: ADENOMA, Dose [Carcinogen]: 10 UMOL ONCE 2 HR POST LAST AGENT DOSE, Promoter: NONE USED): 100%, 32%, 68%, not calculated
tumour outcome (control, treated, inhibition, significance) (Carcinogen: N-NITROSOMETHYLBENZYLAMINE, 937-40-6, Dose [Inhibitor]: 0, 0.4 UMOL/G IN DIET FOR 25 WK BEGINNING 2 WK PRIOR TO CARCINOGEN TREATMENT (STUDY DURATION: 25 WK), Route [Inhibitor]: ORAL, Species: RAT, Strain/Sex: F344/MALE, Target Tissue: Type of Lesion: ESOPHAGUS: TUMOR, Dose [Carcinogen]: 0.5 MG/KG BW IN 20% DMSO 1/WK FOR 15 WK, Promoter: NONE USED): 100%, 93%, 7%, not significant
tumour outcome (control, treated, inhibition, significance) (Carcinogen: N-NITROSOMETHYLBENZYLAMINE, 937-40-6, Dose [Inhibitor]: 0, 1 UMOL/G IN DIET FOR 25 WK BEGINNING 2 WK PRIOR TO CARCINOGEN TREATMENT (STUDY DURATION: 25 WK), Route [Inhibitor]: ORAL, Species: RAT, Strain/Sex: F344/MALE, Target Tissue: Type of Lesion: ESOPHAGUS: TUMOR, Dose [Carcinogen]: 0.5 MG/KG BW IN 20% DMSO 1/WK FOR 15 WK, Promoter: NONE USED): 100%, 93%, 7%, not significant
tumour outcome (control, treated, inhibition, significance) (Carcinogen: N-NITROSOMETHYLBENZYLAMINE, 937-40-6, Dose [Inhibitor]: 0, 2.5 UMOL/G IN DIET FOR 25 WK BEGINNING 2 WK PRIOR TO CARCINOGEN TREATMENT (STUDY DURATION: 25 WK), Route [Inhibitor]: ORAL, Species: RAT, Strain/Sex: F344/MALE, Target Tissue: Type of Lesion: ESOPHAGUS: TUMOR, Dose [Carcinogen]: 0.5 MG/KG BW IN 20% DMSO 1/WK FOR 15 WK, Promoter: NONE USED): 100%, 100%, 0%, not significant

CCCCCCCCCCCCCCCCCCCCCC(O)CC(O)CCCCC (configuration not stated)
tumour outcome (control, treated, inhibition, significance) (Carcinogen: 7,12-DIMETHYLBENZ[A]ANTHRACENE, 57-97-6, Dose [Inhibitor]: 0, 2 UMOL APPLIED 30 MIN PRIOR TO EACH PROMOTER DOSE 2/WK FOR 20 WK BEGINNING 7 D POST CARCINOGEN DOSE (STUDY DURATION:, Route [Inhibitor]: DERMAL, Species: MOUSE, Strain/Sex: ICR/FEMALE, Target Tissue: Type of Lesion: SKIN: PAPILLOMA, Dose [Carcinogen]: 50 UG IN 100 µL ACETONE ONCE, Promoter: 12-O-TETRADECANOLYPHORBOL-13-ACETATE, 16561-29-8): 93%, 20%, 78%, not significant

Oc1ccc(C2=Cc3ccc(O)cc3OC2)cc1
tumour outcome (control, treated, inhibition, significance) (Carcinogen: 7,12-DIMETHYLBENZ[A]ANTHRACENE, 57-97-6, Dose [Inhibitor]: 0, 50 MG/KG IN DIET FOR 117 D (STUDY DURATION: 117 D), Route [Inhibitor]: ORAL, Species: RAT, Strain/Sex: SPRAGUE-DAWLEY/FEMALE, Target Tissue: Type of Lesion: MAMMARY GLAND: TUMOR, Dose [Carcinogen]: 15 MG IN SESAME OIL, ONCE, 7 D AFTER FIRST INHIBITOR DOSE): 15/16 (94.7%), 12/18 (65%), 31.4%, p< 0.05
tumour outcome (control, treated, inhibition, significance) (Carcinogen: 7,12-DIMETHYLBENZ[A]ANTHRACENE, 57-97-6, Dose [Inhibitor]: 0, 75 MG/KG IN DIET FOR 117 D (STUDY DURATION: 117 D), Route [Inhibitor]: ORAL, Species: RAT, Strain/Sex: SPRAGUE-DAWLEY/FEMALE, Target Tissue: Type of Lesion: MAMMARY GLAND: TUMOR, Dose [Carcinogen]: 15 MG IN SESAME OIL, ONCE, 7 D AFTER FIRST INHIBITOR DOSE): 15/16 (94.7%), 12/17 (70%), 26.1%, p< 0.05

C=C1CC[C@H]2[C@@]3(C)CCC[C@]2(C)[C@H]1CO[C@@H](C(=O)OC)[C@H](CC(=O)O)C(=O)OC[C@]1(C)CCC[C@]2(C)[C@@H](CO[C@@H](C(=O)OC)[C@H](CC(=O)O)C(=O)OC3)C(=C)CC[C@@H]12
tumour outcome (control, treated, inhibition, significance) (Carcinogen: 7,12-DIMETHYLBENZ[A]ANTHRACENE, 57-97-6, Dose [Inhibitor]: 0, 1 MG 2/WK FOR 20 WK APPLIED 10 MIN PRIOR TO EACH PROMOTER DOSE (STUDY DURATION: 20 WK), Route [Inhibitor]: DERMAL, Species: MOUSE, Strain/Sex: CD-1/FEMALE, Target Tissue: Type of Lesion: SKIN: TUMOR, Dose [Carcinogen]: 100 UG ONCE, Promoter: OKADAIC ACID, 78111-17-8): 73%, 80%, -10%, not significant
tumour outcome (control, treated, inhibition, significance) (Carcinogen: 7,12-DIMETHYLBENZ[A]ANTHRACENE, 57-97-6, Dose [Inhibitor]: 0, 5 MG 2/WK FOR 20 WK APPLIED 10 MIN PRIOR TO EACH PROMOTER DOSE (STUDY DURATION: 20 WK), Route [Inhibitor]: DERMAL, Species: MOUSE, Strain/Sex: CD-1/FEMALE, Target Tissue: Type of Lesion: SKIN: TUMOR, Dose [Carcinogen]: 100 UG ONCE, Promoter: OKADAIC ACID, 78111-17-8): 73%, 93%, -27%, not significant

[O]=[V](=[O])[OH]
tumour outcome (control, treated, inhibition, significance) (Carcinogen: 7,12-DIMETHYLBENZ[A]ANTHRACENE (57-97-6), Dose [Inhibitor]: DRINKING WATER, Route [Inhibitor]: 4.27 µM/L DIRECTLY AFTER CARCINOGEN UNTIL 34 WKS, Species: RAT, Strain/Sex: SPRAGUE-DAWLEY/FEMALE, Target Tissue: Type of Lesion: MAMMARY: CARCINOMA, Dose [Carcinogen]: 0.5 MG/100 G BW AT 50 D OF AGE ONCE (STUDY DURATION: 35 WKS)): 100%, 60%, 40%, p<0.05
outcome (Carcinogen: 7,12-Dimethylbenzanthracene, 57-97-6, Dose [Inhibitor]: 0.5 ppm in drinking water beginning immediately after carcinogen up to 35 wks study duration, Route [Inhibitor]: Oral, Species: Rat, Strain/Sex: Sprague-Dawley/Female, Target Tissue: Type of Lesion: Mammary gland: Adenocarcinoma, Dose [Carcinogen]: 0.5 mg/100 g bw iv once, study duration 35 wk, Promoter: None): 9/10 (90%), 6/10 (60%), p<0.05
outcome (Carcinogen: INTRAVENOUS; Dose [Inhibitor]: 7,12-DIMETHYLBENZ[A]ANTHRACENE; 57-97-6; Route [Inhibitor]: 0; 0.5 PPM IN DRINKING WATER FOR 35 WK BEGINNING IMMEDIATELY POST CARCINOGEN TREATMENT, STUDY DURATION: 35 WK), Species: RAT, Strain/Sex: SPRAGUE-DAWLEY/FEMALE, Target Tissue: Type of Lesion: 9/10 (90%), 6/10 (60%), 33%, P<0.05): 8.11, 5.33, 34%, p<0.01
tumour outcome (control, treated, inhibition, significance) (Carcinogen: N,N-Diethylnitrosamine;(55-18-5, Dose [Inhibitor]: 0.5 ppm as vanadium starting 4 wk prior to DEN and stopped at week 4, Route [Inhibitor]: Oral (drinking water), Species: Rats, Strain/Sex: Sprague-Dawley/Male, Target Tissue: Type of Lesion: Liver: Preneoplastic nodules, Dose [Carcinogen]: Single 200 mg/kg dose in 0.9% saline at wk 4 of experiment, Promoter: Phenobarbital): 15/15 (100%), 4/12 (33.33%), 66.67%
